{"source": "patent US20160060209A1", "about": "“BIS A[…] COMPLEXES FOR X-RAY IMAGING” (BAYER PHARMA AKTIENGESELLSCHAFT üß, priority 2013, published 2016)", "data": [{"assay": "Stability of bis azainositol hafnium complexes in aqueous buffered solution on heat treatment (steam autoclave)", "type": "physicochemical", "settings": "aqueous buffered solution pH 7.4, 5 mmol/L, 121° C. for 45 minutes in steam autoclave; HPLC peak area ratio x metal concentration ratio (ICP-OES)", "description": "The stability of bis azainositol hafnium complexes was determined in aqueous, buffered solution at pH 7.4. The solution containing 5 mmol/L of the compound in a tightly sealed vessel was heated to 121° C. for 45 minutes in a steam autoclave. The hafnium concentration of the solution was determined by ICP-OES before and after heat treatment. The integrity of the compound was determined by HPLC analysis before and after heat treatment. Absolute stability was calculated as the ratio of the peak area of the compound after and before the heat treatment multiplied with the ratio of the metal concentration of the solution after and before heat treatment.\nHPLC system: Column 1: Reversed phase C18.\nSolvent A1: 0.5 mM tetrabutylammonium phosphate pH 6 Solvent A2: 0.1% formic acid in water Solvent B1: methanol Solvent B2: acetonitrile\nThe use of columns, solvents, flow rate and gradients is detailed in the table below. Detector: element specific detection by ICP-MS, running at m/z 180, the most abundant isotope of hafnium", "units": {"Stability": "%"}, "values": [{"substance": "Bis[μ3-2,2′-({[1R-(1α,2α,3α,4α,5α,6α)]-2,4,6-trihydroxylato-1κ^2O^2O^6,2κ^2O^2O^4,3κ^2O^4O^6-5-[(2-hydroxylato-3κO-ethyl)amino-3κN^5]cyclohexane-1,3-diyl}diimino-1κN^1,2κN^3)di-acetato-1κO,2κO′]trihafnium (IV) [Example 8]", "Stability": 100}, {"substance": "Bis[μ3-2,2′-({[1R-(1α,2α,3α,4α,5α,6α)]-5-[(2-carboxylato-3κO-ethyl)amino-3κN^5]-2,4,6-trihydroxylato-1κ^2O^2O^6,2κ^2O^2O^4,3κ^2O^4O^6-cyclohexane-1,3-diyl}diimino-1κN^1,2κN^3)di-acetato-1κO,2κO′]trihafnium(IV) [Example 10]", "Stability": 101}, {"substance": "Bis[μ3-3,3′-({[1R-(1α,2α,3α,4α,5α,6α)]-2,4,6-trihydroxylato-1κ^2O^2O^6,2κ^2O^2O^4,3κ^2O^4O^6-5-[(2-hydroxylato-3κO-ethyl)amino-3κN^5]cyclohexane-1,3-diyl}diimino-1κN1,2κN^3)di-propanoato-1κO,2κO′]trihafnium (IV) [Example 3]", "Stability": 100}, {"substance": "Bis[μ3-3,3′-({[1R-(1α,2α,3α,4α,5α,6α)]-5-[(2S,3R)(3,4-dihydroxy-2-hydroxylato-3κO-butyl)amino-3κN^5]-2,4,6-trihydroxylato-1κ^2O^2O^6,2κ^2O^2O^4,3κ^2O^4O^6-cyclohexane-1,3-diyl}diimino-1κN^1,2κN^3)dipropanoato-1κO,2κO′]trihafnium(IV) [Example 5]", "Stability": 101}, {"substance": "Hydroxido-3κO-[μ3-3,3′,3″-({[1R-(1α,2α,3α,4α,5α,6α)]-2,4,6-trihydroxylato-1κ^2O^2O^6, 2κ^2O^2O^4,3κ^2O^4O^6-cyclohexane-1,3,5-triyl}tris{methylimino-1κN^1,2κN^3,3κN^5}) tri-propanoato-1κO,2κO′,3κO″][μ3-3,3′-({[1R-(1α,2α,3α,4α,5α,6α)]-2,4,6-trihydroxylato-1κ^2O^2O^6,2κ^2O^2O^4,3κ^2O^4O^6-5-[methylamino-3κN^5]cyclohexane-1,3-diyl}bis{methyl-imino-1κN^1,2κN^3})dipropanonato-1κO,2κO′]trihafnium (IV) [Example 1]", "Stability": 100}]}]}
